Experimental data as given in patent US12612403B2, “Nitrogen-containing heterocyclic derivative inhibitor, and preparation method therefor and use thereof” (SHANGHAI HANSOH BIOMEDICAL CO., LTD., priority 2024, dated 2026).

Key:
PCSK9 protein = target: T1, PCSK9 protein (Homo sapiens, UniProt Q8NBP7); assay: Binding ability to PCSK9 protein (HTRF); details: PCSK9-His, Alexa Fluor 647 probe compound
T1 construct: purchased Sino biology (Sino Biological) 29698-H08H
Protocol: 1. Experimental objective: To detect the action of compounds to bind PCSK9 protein by an HTRF method.
3. Experimental data processing method: Four-parameter log(inhibitor) vs. response—Variable slope (four parameters) in XLit was used to perform non-linear fitting of the compound concentration and the corresponding inhibition rate, and IC50 was calculated.

[1] = Pharmacokinetic determination in mice (PO 5 mg/kg, IV 1 mg/kg); assay type: in vivo, C57BL/6J mice; details: male, C57BL/6J, mouse, plasma, C57 mice, PO administration, 5 mpk
Protocol: 1. Experimental objective: C57BL/6J mice were used as test animals to study the pharmacokinetic behavior of the compounds of the present disclosure in mice (plasma) after oral and intravenous administration.
2.2 Test animals: C57 mice, male, purchased from Shanghai Bk Lab Animal Co., Ltd., with animal production license number (SCXK (Shanghai) 2013-0006 N0.311620400001794).
2.3 Drug preparation: Preparation of oral drug: 10% Solutol HS15
10 g of Solutol HS15 solid was weighed, dissolved in 90 mL of pure water, uniformly mixed, stirred, and ultrasonically treated to form a clear solution. The compound of the present disclosure was weighed and dissolved in this solution, uniformly shaken, and ultrasonically treated for 15 minutes to obtain a colorless clear solution with a concentration of 0.5 mg/mL. Preparation of intravenous drug: 5% DMSO+10% Solutol HS15+85% PBS, the compound of the present disclosure was weighed, 5% DMSO was first added on the basis of the proportion relative to the total volume of administration, and the mixture was vortexed and ultrasonically treated for 2 min until it was completely dissolved; 10% of Solutol HS15 was then added, and the mixture was vortexed and ultrasonically treated for 2 min until it was completely dissolved; and finally, 85% of PBS was added, and the mixture was vortexed, ultrasonically treated for 5 min, and filtered through a 0.22 um filter membrane to obtain a colorless and transparent clear solution with a concentration of 0.2 mg/mL.
2.4 Administration: 3 male C57 mice were fasted overnight and then respectively administered PO at a dose of 5 mg/kg and a volume of 10 mL/kg. 3 male C57 mice were fasted overnight and then respectively administered IV at a dose of 1 mg/kg and a volume of 5 mL/kg.
2.5 Sample collection: Before and after administration of mice, 0.04 mL of blood was collected from the orbit at 0.083 (iv), 0.25, 0.5, 1, 2, 4, 8, and 24 hours, and placed in EDTA-K2 test tubes, which was centrifuged at 6000 rpm at 4° C. for 6 min to separate plasma which was stored at −80° C.; and the […] were fed 4 h after administration.
2.6 Determination results: The final determination results were obtained by using an LCMS/MS method.
3. Experimental results: The main pharmacokinetic parameters were calculated using WinNonlin 6.1.

T1 sequence (Q8NBP7 153-692): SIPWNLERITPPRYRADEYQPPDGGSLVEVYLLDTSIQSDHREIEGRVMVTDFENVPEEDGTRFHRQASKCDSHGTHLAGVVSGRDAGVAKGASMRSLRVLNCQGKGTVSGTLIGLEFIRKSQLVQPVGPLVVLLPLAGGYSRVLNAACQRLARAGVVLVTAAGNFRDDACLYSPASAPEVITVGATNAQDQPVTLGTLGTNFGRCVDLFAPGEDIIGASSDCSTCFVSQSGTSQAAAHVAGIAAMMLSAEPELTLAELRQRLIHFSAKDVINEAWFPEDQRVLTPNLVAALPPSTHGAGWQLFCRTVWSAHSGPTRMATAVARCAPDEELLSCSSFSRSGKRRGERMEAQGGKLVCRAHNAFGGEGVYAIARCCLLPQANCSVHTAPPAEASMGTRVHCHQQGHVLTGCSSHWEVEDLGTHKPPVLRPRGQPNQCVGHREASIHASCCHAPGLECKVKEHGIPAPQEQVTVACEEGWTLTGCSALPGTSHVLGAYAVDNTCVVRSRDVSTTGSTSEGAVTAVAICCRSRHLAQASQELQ

SMILES	IC50 (PCSK9 protein) [nM]	further results
O=c1nc(O)ccn1-c1ccc(N[C@H]2CC[C@H](Nc3nc4cc(C(F)F)ccn4n3)C2)nc1 [Example 104]	13.9	
Cc1ccn2nc(N[C@H]3CC[C@H](Nc4ncc(N5Cc6ncccc6C5=O)cc4F)C3)nc2c1 [Example 223]	7.2	
Cc1cc(N[C@H]2CC[C@H](Nc3nc4cc(C(F)(F)F)ccn4n3)C2)ncc1N1Cc2nc(O)ccc2C1=O [Example 144]	15.6	
O=c1nc(O)c(C(F)(F)F)cn1-c1ccc(N[C@H]2CC[C@H](Nc3nc4cc(C(F)(F)F)ccn4n3)C2)nc1 [Example 119]	23	
O=C1c2cccnc2CN1c1cnc(N[C@H]2CC[C@H](Nc3nc4cc(OC(F)F)ccn4n3)C2)c(F)c1 [Example 152]	6.7	
CC(C)(O)c1cnc2c(c1)CN(c1cnc(N[C@H]3CC[C@H](Nc4nc5cc(F)ccn5n4)C3)c(F)c1)C2=O [Example 196]	8.7	
Cc1ccn2nc(N[C@H]3CC[C@H](Nc4ccc(-n5ccc(O)nc5=O)cn4)C3)nc2c1 [Example 106]	10.6	
O=C1c2nc(O)ccc2CN1c1ccc(N[C@H]2CC[C@H](Nc3nc4cc(C(F)(F)F)ccn4n3)C2)nc1 [Example 139]	36.3	
COc1cc(N2Cc3cccnc3C2=O)cnc1N[C@H]1CC[C@H](Nc2nc3cc(C(F)(F)F)ccn3n2)C1 [Example 170]	13.3	
Cc1ccn2nc(N[C@H]3CC[C@H](Nc4ncc(-n5ccc(O)nc5=O)cc4F)C3)nc2c1 [Example 225]	8.6	
CC(C)(O)c1cccn(-c2cnc(N[C@H]3CC[C@H](Nc4nc5cc(C(F)(F)F)ccn5n4)C3)c(F)c2)c1=O [Example 182]	29.3	
CC(C)(O)c1ccn2nc(N[C@H]3CC[C@H](Nc4ncc(N5Cc6cccnc6C5=O)cc4F)C3)nc2c1 [Example 168]	10.6	
Cc1ccn2nc(N[C@H]3CC[C@H](Nc4ncc(N5CCn6nccc6C5=O)cc4F)C3)nc2c1 [Example 226]	7.1	
Cc1ccc2c(n1)CN(c1ccc(N[C@H]3CC[C@H](Nc4nc5cc(OC(F)F)ccn5n4)C3)nc1)C2=O [Example 131]	6.7	AUC(0-inf) ([1]; read-out: Area under the curve AUC0-∞): 22400 ng·h/mL; half-life ([1]; read-out: Half-life t1/2 (converted)): 204 min; MRT ([1]; read-out: Mean residence time MRT): 2.7 h; Cmax ([1]; read-out: Plasma concentration Cmax): 7170 ng/mL; Tmax ([1]; read-out: Time to peak tmax): 30 min
Cc1cc2c(cn1)CN(c1cnc(N[C@H]3CC[C@H](Nc4nc5cc(OC(F)F)ccn5n4)C3)c(F)c1)C2=O [Example 160]	7.7	
O=c1nc(O)ccn1-c1ccc(N[C@H]2CC[C@H](Nc3nc4cc(F)ccn4n3)C2)nc1 [Example 102]	13.3	
CC(C)(O)c1ccnc2c1CN(c1cnc(N[C@H]3CC[C@H](Nc4nc5cc(F)ccn5n4)C3)c(F)c1)C2=O [Example 197]	7.5	
O=C1c2c(F)ccnc2CN1c1ccc(N[C@H]2CC[C@H](Nc3nc4cc(OC(F)F)ccn4n3)C2)nc1 [Example 135]	5.4	

SMILES	IC50 (PCSK9 protein) [nM]	further results
O=C1c2nccn2CCN1c1cnc(N[C@H]2CC[C@H](Nc3nc4cc(C(F)(F)F)ccn4n3)C2)c(F)c1 [Example 213]	9.5	
O=c1nc(O)ccn1-c1ccc(N[C@H]2CC[C@H](Nc3nc4cc(C5CC5)ccn4n3)C2)nc1 [Example 107]	21.3	
O=C1c2ccc(O)nc2CN1c1ccc(N[C@H]2CC[C@H](Nc3nc4cc(OC(F)F)ccn4n3)C2)nc1 [Example 138]	8.8	
O=C1COCCN1c1ccc(N[C@H]2CC[C@H](Nc3nc4cc(F)ccn4n3)C2)nc1 [Example 53, 4-(6-(((1S,3S)-3-((7-fluoro-[1,2,4]triazolo[1,5-a]pyridin-2-yl)amino)cyclopentyl)amino)pyridin-3-yl)morpholin-3-one]	43.6	
O=c1ccncn1-c1ccc(N[C@H]2CC[C@H](Nc3nc4cc(F)ccn4n3)C2)nc1 [Example 28, 3-(6-(((1S,3S)-3-((7-fluoro-[1,2,4]triazolo[1,5-a]pyridin-2-yl)amino)cyclopentyl)amino)pyridin-3-yl)pyrimidin-4(3H)-one]	17.4	
Cc1ccn2nc(N[C@H]3CC[C@H](Nc4ncc(-n5ccccc5=O)cc4F)C3)nc2c1 [Example 224]	8.5	
Cc1cnc2c(c1)C(=O)N(c1ccc(N[C@H]3CC[C@H](Nc4nc5cc(OC(F)F)ccn5n4)C3)nc1)C2 [Example 128]	8.5	
O=C1c2cc(F)cnc2CN1c1cnc(N[C@H]2CC[C@H](Nc3nc4cc(OC(F)F)ccn4n3)C2)c(F)c1 [Example 158]	16	
O=c1cnccn1-c1ccc(N[C@H]2CC[C@H](Nc3nc4cc(F)ccn4n3)C2)nc1 [Example 29, 1-(6-(((1S,3S)-3-((7-fluoro-[1,2,4]triazolo[1,5-a]pyridin-2-yl)amino)cyclopentyl)amino)pyridin-3-yl)pyrazin-2(1H)-one]	18.4	
Cc1nc(N[C@H]2CC[C@H](Nc3nc4cc(C(F)(F)F)ccn4n3)C2)ccc1N1Cc2cccnc2C1=O [Example 176]	9.08	
O=c1nc(O)ccn1-c1ccc(N[C@H]2CC[C@H](Nc3nc4cc(OC(F)F)ccn4n3)C2)nc1 [Example 105]	9.1	
N#Cc1cnc2c(c1)C(=O)N(c1ccc(N[C@H]3CC[C@H](Nc4nc5cc(F)ccn5n4)C3)nc1)C2 [Example 137]	15.9	
Cc1cc2c(cn1)CN(c1cnc(N[C@H]3CC[C@H](Nc4nc5cc(F)ccn5n4)C3)c(F)c1)C2=O [Example 190]	8.5	
O=C1c2ncc(F)cc2CN1c1ccc(N[C@H]2CC[C@H](Nc3nc4cc(OC(F)F)ccn4n3)C2)nc1 [Example 98]	6.6	
Cc1nc(N[C@H]2CC[C@H](Nc3nc4cc(C(F)(F)F)ccn4n3)C2)c(F)cc1N1CCn2nccc2C1=O [Example 238]	8	
O=c1[nH]cc(-c2cnc(N[C@H]3CC[C@H](Nc4nc5cc(C(F)(F)F)ccn5n4)C3)c(F)c2)c(=O)[nH]1 [Example 195]	9.6	
O=C1c2ncccc2CN1c1cnc(N[C@H]2CC[C@H](Nc3nc4cc(C5CC5)ccn4n3)C2)c(F)c1 [Example 166]	7.9	
